From patent US10682367B2, “Antitumor arylnaphthalene ligand glycosides” (OHIO STATE INNOVATION FOUNDATION, priority 2016, dated 2020)
pIC50: −log10 of the molar value. Converted amounts (≈) assume the structure as drawn. Where two headings read alike, the source gives them in different places. Values belong to the compound of their own block, whether it stands above or below them.

How the values were obtained:
[1] = test system: HT-29 cells; test: Cytotoxicity / antiproliferative activity against HT-29 cells; format: cell-based; settings: for pIC50: HT-29 cells, antiproliferative activity
From the text: The cytotoxicity of the compounds in FIG. 1 was screened against HT-29 cells by a previously reported procedure (Ren Y et al. J. Nat. Prod 2011, 74, 1117-1125). A summary of the results is described in Table 1.

[2] = Solubility, plate reader-based absorbance assay; format: physicochemical
From the text: A series of compounds were synthesized to improve their water solubility. In particular, phyllanthusmin derivatives including an arabinose derivative with a free C2 hydroxy group, have been explored to produce phosphate, succinate, and amino acid conjugates. In addition PHY-25 and PHY-30 have also been synthesized to contain similar alcohol functionality that can ultimately be utilized to improve water solubility. PHY-28 and PHY-29 containing a glucosamine moiety were also synthesized for improved water solubility. The water solubility of these and other PHY derivatives was assessed (Table 2) to establish a baseline of solubility in a series of 4 solutions. This was accomplished using a plate reader-based absorbance assay.
(§1) The solubility, maximum tolerated dose, and pharmacokinetics of the phyllanthusmins, facilitating the in vivo studies with PHY-34, were also determined. The solubility of the compounds were assessed in DMSO, PEG300, HPβCD, and PBS. The stability of PHY-34 was assessed in a formulation comprising PEG300 and saline at a 1:1 volume ratio. The solution was prepared at a concentration of 7 mg/ml. A plate reader-based absorbance assay or LC-MS/MS was used. Table 4 summarizes the solubility measurements. FIG. 5 and Table 5 summarize the stability measurements. FIGS. 6A and 6B show the concentration-time profile of PHY-34 in mouse plasma via different administration routes

[3] = test system: OVCAR3 ovarian cancer cell line; test: IC50 in ovarian cancer cell line OVCAR3; format: cell-based; settings: OVCAR3
Method: (§2) The compounds shown in FIG. 2 were tested against two different ovarian cancer cell lines (xenograft mouse model OVCAR3 and OVCAR8 ovarian cancer cell lines). […] A summary of the test data is shown in FIGS. 3A, 3B, and 4 and Table 3. A comparison of the IC50 values of the compounds in FIG. 2 in two of the ovarian cancer cell lines (OVCAR3 and OVCAR8) reveal subtle differences in activity.

[4] = test system: OVCAR8 ovarian cancer cell line; test: IC50 in ovarian cancer cell line OVCAR8; format: cell-based; settings: OVCAR8
Method: as §2

[5] = Structure-activity remarks on potency of PHY analogues (test not named); settings: relative to PHY-34 type acetal
[6] = mouse, in vivo
Method: as §1

[7] = test system: numerous other cell lines; test: In vitro activity in numerous other cell lines; format: cell-based
[8] = Stability of PHY-34 in PEG300/saline formulation; format: physicochemical; settings: for Stability of PHY-34 / Stability of PHY-34, second value column: PEG300:saline 1:1, 7 mg/ml
Method: as §1

[9] = Hollow fiber assay; parameters: species or system mice; settings: mouse
Method: Hollow fiber assay, IVIS imaging, tubulin inhibition, autophagy, and tumor burden were determined in mice exposed to various arylnaphthalene ligans.

[10] = test system: mice; test: Toxicity and maximum tolerated dose in mice by IV, IP or PO route; format: in vivo; settings: for MTD (maximum tolerated dose) / Toxicity (survival): mice
Method: To determine toxicity, PHY-34 was administered to mice by the bolus intravenous (IV), bolus intraperitoneal (IP), or oral (PO) route to the assigned animals.

Compound: COc1cc2c(OC3OCC4OC(C)(C)OC4C3OC)c3c(c(-c4ccc5c(c4)OCO5)c2cc1OC)C(=O)OC3 (centres unmarked) [PHY-31]
pIC50 [1]: 8.28

Solubility in 10% Cremaphor EL/PBS [2]: 10 mg/mL
Solubility in DMSO [2]: 75 mg/mL
Solubility in PBS [2]: 0.20 mg/mL
Solubility in PEG300 [2]: 14 mg/mL
Compound: phyllanthusmins C [PHY-15]

Compound: acutissimalignan A [ACUTA, reference compound]
pIC50 [3]: 5.50
pIC50 [4]: 7.45

Compound: phyllanthusmins D [PHY-1]
pIC50 [3]: 4.96
pIC50 [4]: 7.30
Solubility in 10% Cremaphor EL/PBS ([2]; Table 2): 8.4 mg/mL
Solubility in DMSO ([2]; Table 2): 97 mg/mL
Solubility in PBS ([2]; Table 2): 0.12 mg/mL
Solubility in PEG300 ([2]; Table 2): 33 mg/mL

Compound: COc1cc2c(OC3OC4COC(C)OC4C(OC)C3OC)c3c(c(-c4ccc5c(c4)OCO5)c2cc1OC)C(=O)OC3 [PHY-33, 7-O-(4,6-O-ethylidene-2,3-di-O-methyl-β-D-galactopyranosyl)-diphyllin]
effect of acetal variation on potency (in words) [5]: loss of potency

Compound: COc1cc2c(OC3OC(CO)C4OC(C)(C)OC4C3O)c3c(c(-c4ccc5c(c4)OCO5)c2cc1OC)C(=O)OC3 (centres unmarked) [PHY-34]
pIC50 [3]: 8.40
potency in ovarian cancer cell lines (in words) [3]: highest potency
AUC on oral dosing (in words) [6]: reasonable AUCs
activity in numerous other cell lines (in words) [7]: single digit nanomolar
pIC50 [4]: 8.39
potency in ovarian cancer cell lines (in words) [4]: highest potency
Stability of PHY-34 ([8]; 4° C., 1 week): 86
Stability of PHY-34 ([8]; 4° C., 1 day): 95
Stability of PHY-34, second value column ([8]; 4° C., 1 day): 77
Stability of PHY-34 ([8]; RT, 0 hr): 100
Stability of PHY-34, second value column ([8]; RT, 0 hr): 100
Stability of PHY-34 ([8]; RT, 6 hr): 87
Stability of PHY-34, second value column ([8]; RT, 6 hr): 82
Stability of PHY-34 ([8]; −20° C., 1 week): 87
Stability of PHY-34, second value column ([8]; −20° C., 1 week): 77
Stability of PHY-34 ([8]; −20° C., 1 day): 90
Stability of PHY-34, second value column ([8]; −20° C., 1 day): 82
Stability of PHY-34 ([8]; −80° C., 1 week): 86
Stability of PHY-34, second value column ([8]; −80° C., 1 week): 81
Stability of PHY-34 ([8]; −80° C., 1 day): 93
Stability of PHY-34, second value column ([8]; −80° C., 1 day): 80
stability of PHY-34 solution upon storage (in words) ([8]; storage for one week at 4° C. to −80° C.): stable (no significant degradation)
Solubility in 30% HPβCD [2]: 1.7 mg/mL (≈ 2.92 mM)
Solubility in DMSO [2]: 114.4 mg/mL (≈ 196 mM)
Solubility in PBS [2]: 0.03 mg/mL (≈ 0.0515 mM)
Solubility in PEG300 [2]: 27.6 mg/mL (≈ 47.4 mM)
activity against HT-29 cells (in words) ([1]; in vitro): sub-nanomolar
efficacy in vivo in hollow fiber assay (in words) [9]: demonstrated efficacy
MTD (maximum tolerated dose) ([10]; IP): 1.8 mpk
Toxicity (survival) ([10]; IP, 0.6 mpk): all 3 alive
Toxicity (survival) ([10]; IP, 1.8 mpk): all 5 alive
Toxicity (survival) ([10]; IP, 3 mpk, within 0.5): all 3 died within 0.5
Toxicity (survival) ([10]; IP, 6 mpk, within 0.5 hour): all 5 died within 0.5
MTD (maximum tolerated dose) ([10]; IV): 0.6 mpk
Toxicity (survival) ([10]; IV, 0.3 mpk): all 5 alive
Toxicity (survival) ([10]; IV, 0.6 mpk): all 5 alive
Toxicity (survival) ([10]; IV, 1 mpk, within 0.5 hour): 1 out of 5 died within
Toxicity (survival) ([10]; IV, 3 mpk, within 5 minutes): all 5 died within 5
MTD (maximum tolerated dose) ([10]; PO): >30 mpk
Toxicity (survival) ([10]; PO, 30 mpk): all 5 alive
toxicity on oral dosing (in words) ([10]; oral dosing, up to 30 mpk): no toxicity

pIC50 [3]: 8.45
pIC50 [4]: 8.31
Solubility in 30% HPβCD ([2]; Table 4): 0.6 mg/mL (≈ 1.01 mM)
Solubility in DMSO ([2]; Table 4): 104.0 mg/mL (≈ 174 mM)
Solubility in PEG300 ([2]; Table 4): 28.7 mg/mL (≈ 48.1 mM)
Compound: COc1cc2c(OC3OC(CO)C4OC(C)(C)OC4C3OC)c3c(c(-c4ccc5c(c4)OCO5)c2cc1OC)C(=O)OC3 (centres unmarked) [PHY-37]
Solubility in PBS ([2]; Table 4): — (below the limit of quantitation (0.01 mg/ml))

Compound: COc1cc2c(OC3OC4COC(C)OC4C(O)C3O)c3c(c(-c4ccc5c(c4)OCO5)c2cc1OC)C(=O)OC3 [PHY-32, 7-O-(4,6-O-ethylidene-β-D-galactopyranosyl)-diphyllin]
effect of acetal variation on potency (in words) [5]: loss of potency

Compound: COc1cc2c(O[C@@H]3O[C@H](CO)[C@@H](O)[C@H](O)[C@H]3NC(C)=O)c3c(c(-c4ccc5c(c4)OCO5)c2cc1OC)C(=O)OC3 [PHY-29]
pIC50 [1]: 4.72

Solubility in 10% Cremaphor EL/PBS [2]: 9.4 mg/mL
Solubility in DMSO [2]: 63 mg/mL
Solubility in PBS [2]: 0.17 mg/mL
Solubility in PEG300 [2]: 32 mg/mL
Compound: phyllanthusmins C [PHY-4]

Compound: COc1cc([C@@H]2c3cc4c(cc3[C@@H](O[C@@H]3O[C@@H]5CO[C@@H](C)O[C@H]5[C@H](O)[C@H]3O)[C@H]3COC(=O)[C@H]23)OCO4)cc(OC)c1O [ETOPO, etoposide, reference compound]
pIC50 [3]: 5.62
pIC50 [4]: 5.09

Compound: COc1cc2c(OCC(O)CO)c3c(c(-c4ccc5c(c4)OCO5)c2cc1OC)C(=O)OC3 (centres unmarked) [PHY-19]
pIC50 [1]: 5.81

Compound: COc1cc2c(O[C@@H]3O[C@H](COC(C)=O)[C@@H](OC(C)=O)[C@H](OC(C)=O)[C@H]3NC(C)=O)c3c(c(-c4ccc5c(c4)OCO5)c2cc1OC)C(=O)OC3 [PHY-28]
pIC50 [1]: 5.81
